Results reported in US6362188B1, “Farnesyl protein transferase inhibitors” (Schering Corporation, priority 1998, dated 2002).

Experiments:
[1] = system: Human tumor cells; experiment: Soft Agar Assay (anchorage-independent growth); type: cell-based; conditions: colony outgrowth in soft agar, stated as a range for the group
Method in brief: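 Tumor cells suspended in 0.3% agarose over a 0.6% agarose base, both layers containing the same farnesyl transferase inhibitor concentration. Incubated 10-16 days at 37° C, 5% CO2; colonies stained with MTT (1 mg/mL in PBS) and counted, IC50 determined.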

| Compound | IC50 [1] [nM] | melting point |
| --- | --- | --- |
| O=C([C@H]1CN([C@@H]2c3ccc(Cl)cc3CCc3cc(Br)cnc32)CCN1C(=O)OC1CCCCC1)N1CCC[C@@H](Cn2ccnc2)C1 [Example 15] | 0.5 to 30 | 140 to 144 °C |
| CN1CCN(C(=O)C2CN(C3c4ccc(Cl)cc4CCc4cc(Br)cnc43)CCN2C(=O)OC(C)(C)C)CC1Cn1ccnc1 (stereo not shown) [Example 5] | 0.5 to 30 | 123 to 134 °C |
| CC(C)(C)OC(=O)N1CCN([C@H]2c3ccc(Cl)cc3CCc3cc(Br)cnc32)C[C@@H]1C(=O)N1CCC[C@H](Cn2ccnc2)C1 [Example 11] | 0.5 to 30 | 122 to 127 °C |
| Cc1cn(CC2CCCN2C(=O)C2CN(C3c4ccc(Cl)cc4CCc4cccnc43)CCN2C(=O)OC(C)(C)C)cn1 (stereo not shown) [35(F)] | 0.05 to 30 | 115 to 120 °C |
| Cc1nccn1CC1CCCN(C(=O)C2CN(C3c4ccc(Cl)cc4CCc4cccnc43)CCN2C(=O)OC(C)C)C1 (single isomer, unassigned) [Example 38] | 0.5 to 30 | 92 to 101 °C |
| Cc1cn(CC2CCCN(C(=O)C3CN(C4c5ccc(Cl)cc5CCc5cc(Br)cnc54)CCN3C(=O)OC(C)(C)C)C2)cn1 (stereo not shown) [Example 4.1] | 0.5 to 30 | 114 to 121 °C |
| CC(C)(C)OC(=O)N1CCN([C@@H]2c3ccc(Cl)cc3CCc3cc(Br)cnc32)C[C@@H]1C(=O)N1CCC[C@@H](Cn2ccnc2)C1 [Example 12] | 0.5 to 30 | 135 to 138 °C |
| CC(C)(C)OC(=O)N1CCN([C@H]2c3ccc(Cl)cc3CCc3cc(Br)cnc32)C[C@@H]1C(=O)N1CCC[C@@H](Cn2ccnc2)C1 [Example 13] | 0.5 to 30 | 127 to 130 °C |
| Cc1nccn1CC1CCCN(C(=O)C2CN(C3c4ccc(Cl)cc4CCc4cccnc43)CCN2C(=O)OC(C)(C)C)C1 (single isomer, unassigned) [Example 27] | 0.5 to 30 | 110 to 119 °C |
| CC(C)OC(=O)N1CCN(C2c3ccc(Cl)cc3CCc3cccnc32)CC1C(=O)N1CCCC(Oc2cccnc2)C1 (stereo not shown) [41(C)] | 0.05 to 30 | 104 to 108 °C |
| Cc1cn(CC2CCCN(C(=O)C3CN(C4c5ccc(Cl)cc5CCc5cccnc54)CCN3C(=O)OC(C)(C)C)C2)cn1 (stereo not shown) [Example 28] | 0.5 to 30 | 115 to 132 °C |
| Cc1ncn(CC2CCCN(C(=O)C3CN(C4c5ccc(Cl)cc5CCc5cccnc54)CCN3C(=O)OC3CCCCC3)C2)c1C (single isomer, unassigned) [47(G)] | 0.05 to 30 | 98 to 130 °C |

The remaining lines, values ahead:

| IC50 [1] [nM] | melting point | Compound |
| --- | --- | --- |
| 0.05 to 30 | 115 to 128 °C | Cc1cn(C[C@H]2CCCN(C(=O)[C@H]3CN([C@@H]4c5ccc(Cl)cc5CCc5cc(Cl)cnc54)CCN3C(=O)OC3CCCCC3)C2)cn1 [Example 258] |
| 0.05 to 30 | 100 to 116 °C | Cc1cn(C[C@@H]2CCCN(C(=O)[C@H]3CN([C@H]4c5ccc(Cl)cc5CCc5cc(Cl)cnc54)CCN3C(=O)OC(C)(C)C)C2)cn1 [Example 227] |
| 0.05 to 30 | 108 to 113 °C | Cc1cn(C[C@@H]2CCCN(C(=O)[C@H]3CN([C@@H]4c5ccc(Cl)cc5CCc5ccc[n+]([O-])c54)CCN3C(=O)OC3CCCCC3)C2)cn1 [Example 388] |
| 0.05 to 30 | 103 to 115 °C | Cc1cn(C[C@@H]2CCCN(C(=O)[C@H]3CN([C@H]4c5ccc(Cl)cc5CCc5cccnc54)CCN3C(=O)OCC(C)(C)C)C2)cn1 [Example 411] |
| 0.05 to 30 | 102 to 113 °C | Cc1cn(C[C@H]2CCCN(C(=O)[C@H]3CN([C@H]4c5ccc(Cl)cc5CCc5cc(Cl)cnc54)CCN3C(=O)OC(C)(C)C)C2)cn1 [Example 229] |
| 0.05 to 30 | 122 to 126 °C | Cc1cn(C[C@H]2CCCN(C(=O)[C@H]3CN([C@@H]4c5ccc(Cl)cc5CCc5cc(F)cnc54)CCN3C(=O)OC(C)(C)C)C2)cn1 [Example 262] |
| 0.05 to 30 | 115 to 128 °C | Cc1cn(C[C@@H]2CCCN(C(=O)[C@H]3CN([C@@H]4c5ccc(Cl)cc5CCc5cc(Cl)cnc54)CCN3C(=O)OC(C)(C)C)C2)cn1 [Example 228] |
| 0.05 to 30 | 175 °C (dec.) | Cc1cn(C[C@@H]2CCCN(C(=O)[C@H]3CN([C@H]4c5ccc(Cl)cc5CCc5cccnc54)CCN3C(=O)Cc3cc[n+]([O-])cc3)C2)cn1 [Example 412] |
| 0.05 to 30 | 116 to 126 °C | Cc1cn(C[C@@H]2CCCN(C(=O)[C@H]3CN([C@H]4c5ccc(Cl)cc5CCc5cc(Cl)cnc54)CCN3C(=O)OC3CCCCC3)C2)cn1 [Example 255] |
| 0.05 to 30 | 105 to 110 °C | Cc1cn(C[C@@H]2CCCN(C(=O)[C@H]3CN([C@H]4c5ccc(Cl)cc5CCc5cc(Br)cnc54)CCN3C(=O)Cc3ccc(F)cc3)C2)cn1 [Example 197] |
| 0.05 to 30 | 116 to 123 °C | Cc1cn(CC2CCCN(C(=O)C3CN(C4c5ccc(Cl)cc5CCc5cc(F)cnc54)CCN3C(=O)OC3CCCCC3)C2)cn1 (stereo not shown) [Example 287] |
| 0.05 to 30 | 102 to 118 °C | Cc1cn(C[C@H]2CCCN(C(=O)[C@H]3CN([C@@H]4c5ccccc5CCc5cc(Cl)cnc54)CCN3C(=O)OC(C)(C)C)C2)cn1 [Example 294] |
| 0.05 to 30 | 128 to 134 °C | Cc1cn(C[C@@H]2CCCN(C(=O)[C@H]3CN([C@@H]4c5ccc(Cl)cc5CCc5cc(F)cnc54)CCN3C(=O)OC3CCCCC3)C2)cn1 [Example 288] |
| 0.05 to 30 | 122 to 128 °C | Cc1cn(C[C@@H]2CCCN(C(=O)[C@H]3CN([C@@H]4c5ccc(Cl)cc5CCc5cc(Cl)cnc54)CCN3C(=O)OC3CCCCC3)C2)cn1 [Example 256] |
| 0.05 to 30 | 121 to 127 °C | Cc1cn(CC2CCCN(C(=O)C3CN(C4c5ccc(Cl)cc5CCc5cc(Cl)cnc54)CCN3C(=O)OC(C)(C)C)C2)cn1 (stereo not shown) [Example 230] |
| 0.05 to 30 | 108 to 113 °C | Cc1cn(CC2CCCCN(C(=O)C3CN(C4c5ccc(Cl)cc5CCc5cccnc54)CCN3C(=O)OC3CCCCC3)C2)cn1 (stereo not shown) [Example 47(CC)] |
| 0.05 to 30 | 114 to 118 °C | Cc1cn(C[C@@H]2CCCN(C(=O)[C@H]3CN([C@H]4c5ccccc5CCc5cc(Cl)cnc54)CCN3C(=O)OC3CCCCC3)C2)cn1 [Example 319] |
